Experimental data published in patent publication US10577361B2, “Dopamine D3 receptor antagonists having a morpholine moiety” (Indivior UK Limited, priority 2015, dated 2020).
Where a name gives a salt, the structure may show the parent alone.

Legend:
[1] = biological target: T1, human dopamine receptor type 2, long variant (hD2L) (Homo sapiens (Human), UniProt P14416); experiment: Functional calcium assay at hD2 recombinant receptor (CHO-Gα16-hD2L cells, FLIPR); format: cell-based; settings: functional pKi at hD2, dopamine EC80 challenge; for Ki: read-out: D2 fp Ki (converted)
Description: Functional Calcium Assay at hD2 Recombinant Receptor CHO cells stably expressing human dopamine receptor type 2, long variant (hD2L), coupled to Gα16 protein (CHO-Gα16-hD2L) were seeded into black walled clear-base 384-well plates at a density of 8,000 cells per well and grown overnight at 37° C. […] Compounds of invention were dissolved in DMSO and 200-fold diluted with assay buffer plus 0.01% Pluronic F-127. […] The fluorescence before compound addition (baseline) and before and after addition of agonist challenge was monitored.

[2] = biological target: human dopamine type 3 receptor (hD3) (Homo sapiens (Human), UniProt P35462); experiment: [3H]-Spiperone binding assay at hD3 recombinant receptor (CHO-hD3 membranes); settings: pKi only estimated to be accurate to about ±0.3-0.5
Description: [^3H]-Spiperone Binding Assay at hD3 and hD4 recombinant receptors CHO cells transiently transfected with human dopamine type 3 or 4 receptors (CHO-hD3 or CHO-hD4, respectively), were re-suspended in 20 mM HEPES, 2 mM EDTA (pH 7.4), homogenised and centrifuged at 40,000 g (20 min, 4° C.). After re-suspension, homogenization and centrifugation as above, the final pellet was re-suspended in 20 mM HEPES, 100 mM NaCl, 10 mM MgCl2, 1 mM EDTA (pH 7.4) and aliquots were kept at −80° C. [^3H]-Spiperone Binding experiments were performed in 96 deep-well polypropylene plates in 50 mM Tris/HCl, 120 mM NaCl, 5 mM KCl, 5 mM MgCl2 (pH 7.4). Compounds of invention were serially diluted in DMSO at 100 fold final concentrations in the assay (1% DMSO final in the assay). Displacement was performed in the presence of 0.3 nM [^3H]-Spiperone. The reaction was initiated by the addition of membrane suspension (4 μg and 12 μg of protein for CHO-hD3- and CHO-hD4 membranes, respectively) and lasted for 90 or 100 min (for hD3 or hD4 membranes, respectively) at 23° C. in a final volume of 500 μl. Non specific binding (NSB) was determined in the presence of 1 μM Spiperone. The binding reaction was stopped by rapid filtration through GF/B filterplates pre-soaked in 0.5% polyetylenimmine (PEI) using a Packard cell harvester. After washing with ice-cold 0.9% NaCl, the plate was left to dry before the addition of Microscint 20 ([…], PerkinElmer). Radioactivity was counted with a TopCount (PerkinElmer). Data were analysed by non-linear regression analysis using GraphPad Prism 5.0 (GraphPad Software). Saturation binding experiments were performed similar to the competition binding experiments using a radioligand concentrations ranging from 0.015 to 4.0 nM. […] Characterization of the human dopamine D3 receptor expressed in transfected cell lines.

[3] = biological target: T1, human dopamine receptor type 2, long variant (hD2L); experiment: [3H]-Spiperone binding assay at hD2 recombinant receptor (CHO-Gα16-hD2L membranes)
Description: [^3H]-Spiperone Binding Assay at hD2 Recombinant Receptor CHO cells stably expressing human dopamine receptor type 2, long variant (hD2L), coupled to Gα16 protein (CHO-Gα16-hD2L) were re-suspended in 20 mM HEPES, 2 mM EDTA (pH 7.4), homogenised and centrifuged at 40,000 g (20 min, 4° C.). After re-suspension, homogenization and centrifugation as above, the final pellet was re-suspended in 20 mM HEPES, 100 mM NaCl, 10 mM MgCl2, 1 mM EDTA (pH 7.4) and aliquots were kept at −80° C. [^3H]-Spiperone Binding experiments were performed in 96 deep-well polypropylene plates in 50 mM Tris/HCl, 120 mM NaCl, 5 mM KCl, 5 mM MgCl2 (pH 7.4). […] Displacement was performed in the presence of 0.08 nM [^3H]-Spiperone. The reaction was initiated by the addition of membrane suspension (2 μg of protein for CHO-hD2 membranes) and lasted for 120 min at 23° C. in a final volume of 1000 μl. Non specific binding (NSB) was determined in the presence of 0.1 μM Spiperone. The binding reaction was stopped by rapid filtration through GF/B filterplates pre-soaked in 0.5% polyetylenimmine (PEI) using a Packard cell harvester. After washing with ice-cold 0.9% NaCl, the plate was left to dry before the addition of Microscint 20 (50 μl/well, PerkinElmer). Radioactivity was counted with a TopCount (PerkinElmer). […] Saturation binding experiments were performed similar to the competition binding experiments using a radioligand concentrations ranging from 0.011 to 3.0 nM. […] Is Clozapine selective for the dopamine D4 receptor? […] Real-time analysis of dopamine: antagonist interactions at recombinant human D2long receptor upon modulation of its activation state. Brit. J.

Chain of human dopamine type 3 receptor (hD3) (P35462 whole entry): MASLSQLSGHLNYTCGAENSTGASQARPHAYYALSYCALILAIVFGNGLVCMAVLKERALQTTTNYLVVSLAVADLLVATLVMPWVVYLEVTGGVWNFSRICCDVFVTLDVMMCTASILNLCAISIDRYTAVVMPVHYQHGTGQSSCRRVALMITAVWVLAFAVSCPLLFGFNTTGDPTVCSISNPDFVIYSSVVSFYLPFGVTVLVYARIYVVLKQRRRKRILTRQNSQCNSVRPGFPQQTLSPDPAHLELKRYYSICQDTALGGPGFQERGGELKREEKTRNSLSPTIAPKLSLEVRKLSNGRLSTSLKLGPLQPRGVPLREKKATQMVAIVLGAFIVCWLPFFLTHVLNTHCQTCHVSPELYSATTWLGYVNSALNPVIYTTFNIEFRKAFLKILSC

D3 p Ki [2] | D2 p Ki [3] | Ki [1] | Structure (SMILES) | D2 fp Ki [1] | Ki ([3]; read-out: D2 p Ki (converted))
6.87 | <4.5 | – | Cn1c(SCCCN2CCOC(c3ccc(C(F)(F)F)cc3)C2)nnc1-c1ccc(S(N)(=O)=O)cc1 (stereo not shown) [Example 33, 4-{4-methyl-5-[(3-{2-[4-(trifluoromethyl)phenyl]morpholine-4-yl}propyl)sulfanyl]-4H-1,2,4-triazol-3-yl}benzene-1-sulfonamide] | – | –
6.71 | 4.96 | – | Cc1ncoc1-c1nnc(SCCCN2CCOC(c3ccc(C(F)(F)F)cc3F)C2)n1C (stereo not shown) [Example 34] | – | –
7.07 | 4.50 | 31.6 µM | Cc1ccc(C2CN(CCCSc3nnc(-c4ccc(-c5noc(C)n5)cc4)n3C)CCO2)cc1 (stereo not shown) [Example 37, 4-[3-({4-methyl-5-[4-(5-methyl-1,2,4-oxadiazol-3-yl)phenyl]-4H-1,2,4-triazol-3-yl}sulfanyl)propyl]-2-(4-methylphenyl)morpholine] | – | –

The remaining lines, values behind:

Structure (SMILES) | D3 p Ki [2] | D2 p Ki [3] | Ki [1] | D2 fp Ki [1] | Ki ([3]; read-out: D2 p Ki (converted))
Cc1ncoc1-c1nnc(SCCCN2CCOC(c3ccc(F)cc3)C2)n1C (single isomer, unassigned) [Example 3, (2R or 2S)-2-(4-fluorophenyl)-4-(3-({[4-methyl-5-(4-methyl-1,3-oxazol-5-yl)-4H-1,2,4-triazol-3-yl]sulfanyl}propyl)morpholine] | 6.56 | – | – | <5 | –
Cc1ncoc1-c1nnc(SCCCCN2CCO[C@H](c3ccc(C(F)(F)F)cc3)C2)n1C (single isomer, unassigned) [Example 6, (2R or 2S)-4-(4-{[4-methyl-5-(4-methyl-1,3-oxazol-5-yl)-4H-1,2,4-triazol-3-yl]sulfanyl}butyl)-2-[4-(trifluoromethyl)phenyl]morpholine] | 7.11 | – | – | <5 | –
Cc1ncoc1-c1nnc(SCCCN2CCO[C@H](c3ccc(C(F)(F)F)cc3)C2)n1C (single isomer, unassigned) [Example 9, (2R or 2S)-4-(3-{[4-methyl-5-(4-methyl-1,3-oxazol-5-yl)-4H-1,2,4-triazol-3-yl]sulfanyl)}propyl)-2-[4-(trifluoromethyl)phenyl]morpholine] | – | 5.36 | – | 5.64 | –
Cc1ncoc1-c1nnc(SCCCN2CCO[C@H](c3ccc(C(F)(F)F)cc3)C2)n1C (single isomer, unassigned) [Example 10, (2R or 2S)-4-(3-({[4-methyl-5-(4-methyl-1,3-oxazol-5-yl)-4H-1,2,4-triazol-3-yl]sulfanyl}propyl)-2-[4-(trifluoromethyl)phenyl]morpholine hydrochloride] | – | – | > 10 µM | – | 11.7 µM
Cc1ncoc1-c1nnc(SCCCN2CCOC(c3ccc(F)cc3)C2)n1C (stereo not shown) [Example 1] | 6.37 | – | > 10 µM | – | –
Cc1ncoc1-c1nnc(SCCCCN2CCOC(c3ccc(C(F)(F)F)cc3)C2)n1C (stereo not shown) [Example 4, 4-(4-{[4-methyl-5-(4-methyl-1,3-oxazol-5-yl)-4H-1,2,4-triazol-3-yl]sulfanyl}butyl)-2-[4-(trifluoromethyl)phenyl]morpholine] | 7.05 | – | > 10 µM | – | –
